Measured values published in patent US20020143164A1, “Ras activator nucleic acid molecules, polypeptides and methods of use” (priority 1999, published 2002).
Values belong to the compound of their own block, whether it stands above or below them.

Assays:
[1] = biological target: T1, GRF4 (Homo sapiens, UniProt Q9Y4G8); assay: Ras activation assay in living cells (GST-Raf1-RBD pull-down), treatment of GRF4-transfected cells; assay type: cell-based; details: for Effect of PKG inhibitor on 8-Br-cGMP enhanced activation of Ras by GRF4: H-8 5 μM or Rp-8-Br-cGMPS 25 μM, then 8-Br-cGMP 500 μM; for Effect of PKG inhibitor on 8-Br-cGMP enhanced activation of Ras by GRF4 / cAMP stimulation of GRF4-mediated activation of Ras in the presence of PKA inhibitor: 30 min; for cAMP stimulation of GRF4-mediated activation of Ras in the presence of PKA inhibitor: H-89 10 μM or Rp-8-Br-cAMPS 50 μM, then 8-Br-cAMP 500 μM; for GRF4 stimulation of Ras activation enhanced following treatment / Enhancement of activation of Ras by GRF4 by membrane permeable cNMP analogue: HEK-293T cells transfected with Flag-GRF4; for Enhancement of activation of Ras by GRF4 by membrane permeable cNMP analogue: analogue 500 μM
T1 construct: Flag, HA or myc tags was added to the N-terminus of full length GRF4 using PCR; expressed in transfected cells; host or cells: HEK-293T
T1 sequence (Q9Y4G8 1-1499): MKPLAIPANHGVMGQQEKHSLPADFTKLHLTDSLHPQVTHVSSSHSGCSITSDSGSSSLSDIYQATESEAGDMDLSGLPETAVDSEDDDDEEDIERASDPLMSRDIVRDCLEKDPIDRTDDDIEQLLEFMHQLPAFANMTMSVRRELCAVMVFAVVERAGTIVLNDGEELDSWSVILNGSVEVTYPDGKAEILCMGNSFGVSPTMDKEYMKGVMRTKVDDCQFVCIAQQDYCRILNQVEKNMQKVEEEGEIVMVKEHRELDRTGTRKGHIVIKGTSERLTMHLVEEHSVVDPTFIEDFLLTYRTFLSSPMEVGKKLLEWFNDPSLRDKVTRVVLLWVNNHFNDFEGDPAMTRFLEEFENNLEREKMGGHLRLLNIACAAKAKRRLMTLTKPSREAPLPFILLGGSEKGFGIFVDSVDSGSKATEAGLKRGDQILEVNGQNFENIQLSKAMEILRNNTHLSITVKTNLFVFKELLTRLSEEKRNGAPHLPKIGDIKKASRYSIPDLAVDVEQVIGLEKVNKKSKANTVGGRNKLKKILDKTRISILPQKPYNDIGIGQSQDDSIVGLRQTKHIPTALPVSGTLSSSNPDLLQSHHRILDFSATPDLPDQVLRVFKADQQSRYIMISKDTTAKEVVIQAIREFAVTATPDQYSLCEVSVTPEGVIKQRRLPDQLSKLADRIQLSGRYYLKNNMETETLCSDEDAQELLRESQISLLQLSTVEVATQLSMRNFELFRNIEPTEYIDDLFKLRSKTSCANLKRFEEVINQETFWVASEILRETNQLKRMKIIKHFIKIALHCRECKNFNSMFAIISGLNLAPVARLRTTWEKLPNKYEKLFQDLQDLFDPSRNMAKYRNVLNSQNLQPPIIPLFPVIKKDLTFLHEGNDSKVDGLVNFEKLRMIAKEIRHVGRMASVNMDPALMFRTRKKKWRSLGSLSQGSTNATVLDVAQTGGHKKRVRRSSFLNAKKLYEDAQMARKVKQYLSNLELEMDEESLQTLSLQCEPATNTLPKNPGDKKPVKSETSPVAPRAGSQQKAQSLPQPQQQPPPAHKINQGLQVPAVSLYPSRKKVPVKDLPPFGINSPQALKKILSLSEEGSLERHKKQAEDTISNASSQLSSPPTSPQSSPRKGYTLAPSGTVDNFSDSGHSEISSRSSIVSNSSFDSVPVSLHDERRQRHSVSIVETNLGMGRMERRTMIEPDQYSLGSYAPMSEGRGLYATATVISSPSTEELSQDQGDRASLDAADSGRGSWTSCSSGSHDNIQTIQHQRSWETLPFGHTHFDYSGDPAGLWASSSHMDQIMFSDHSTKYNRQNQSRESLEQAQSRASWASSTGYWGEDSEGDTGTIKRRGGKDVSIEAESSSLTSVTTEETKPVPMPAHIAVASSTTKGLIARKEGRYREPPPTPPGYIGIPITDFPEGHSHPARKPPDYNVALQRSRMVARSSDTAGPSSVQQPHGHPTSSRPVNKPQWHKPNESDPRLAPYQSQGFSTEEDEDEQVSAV
Procedure: Cells were then lysed and lysate incubated with immobilized Ras binding domain (RBD) of Raf1 (GST-Raf1-RBD), which binds activated (GTP-bound) Ras. Co-precipitated activated ras was then detected with anti Ras antibodies (Quality Biotech) (upper panel). Lower 2 panels depict the amounts of total endogenous Ras and of the transfected GRF4 (detected with anti Ras and anti Flag antibodies, respectively).
Cells were transfected (or not) with Flag-GRF4 and serum-starved overnight as in (a) above, pre-treated (or not) with the PKG inhibitors H8 (5 μM) or Rp-cGMPS (25 μM) and then treated (or not) with the cGMP analogue 8-Br-cGMP (500 μM), as in (a) above. Activated Ras was then precipitated with GST-Raf1-RBD (upper panel), as in (a). Lower panels show total endogenous Ras and GRF4 expressed in the cells.
Parallel treatments with 8-Br-cAMP or 8-Br-cGMP were used as positive controls. Lysates of treated cells were then incubated with GST-Raf1-RBD to precipitate activated Ras, and immunoblotted with anti Ras antibodies, as above (upper panel). Lower panels are as in (a) and (b) above.
The membrane permeable 8-Br-cAMP and 8Br-cGMP analogs (Sigma) were used at a concenreation of 500 μM for 15 min. Inhibitors of PKA: H-89 and Rp-8-Br-cAMPS (CalBiochem) were used at 10 μM and 50 μM, respectively, for 30 min. Inhibitors of PKG: H-8 and Rp-8-Br-cGMPS (CalBiochem) were used at 5 μM and 25 μM, respectively, for 30 min. Activators of Adenylyl Cyclase, Forskolin (Sigma), and activator of Guanylyl Cyclase, YC-1 (CalBiochem), were used at 50 μM and 100 μM, respectively, for 15 min.
(§1) HEK-293T cells were transfected as above, serum starved overnight and then subjected to various treatments, as described in the text. Cells were lysed with lysis buffer (25 mM Hepes, pH 7.5, 150 mM NaCl, 1% NP-40, 0.25% Na deoxycholate, 10% glycerol, 25 mM NaF, 10 mM MgCl2, 1 mM EDTA, 1 mM NaVO4, […]) and the level of Ras.GTP or Rap. GTP in the lysates was determined using activation specific probes as described. Briefly, to determined the levels of active Ras (Ras-GTP) in cell, sepharose-bound GST fusion protein of the Ras-binding domain (RBD) of Raf-1 (GST-Raf1-RBD; Upstate Biotechnology Inc.) was used to precipitate Ras-GTP from cell lysates, and the amount of Ras-GTP determined by immunoblotting with anti Ras antibodies (Quality Biotech). Similarly, to determine the level of Rap1-GTP in cell lysates, sepharose-bound GST fusion proteins of the Rap1-binding domain of RaIGDS (GST-RaIGDS-RBD) were used to precipitate Rap1-GTP, which was then detected on a Western blot using anti-Rap1 antibodies (Transduction Lab).

[2] = test system: Rap1; assay: Rap1 activation assay in living cells (GST-RalGDS-RBD pull-down); assay type: cell-based, human; details: HEK-293T cells expressing GRF4
Procedure: as §1

[3] = biological target: T1, GRF4; assay: Activation of Ras and MAPK by cNMP analogues in GRF4-transfected HEK-293T cells; assay type: cell-based; details: HEK-293T cells transfected with GRF4; not in untransfected cells
Procedure: The small GTPase Ras controls the MAPK pathway and exerts its effects on cellular processes primarily through this pathway. MAPK is a downstream kinase of Ras and thus, Ras activation leads to MAPK activation (FIG. 6A). Therefore, we show the GRF4 effects on MAPK activation using assays in which levels of active MAPK in cells is determined using antibodies recognizing phosphorylated (active) MAPK.

[4] = biological target: T2, GRF4-cNMP-BD (Homo sapiens, UniProt Q9Y4G8); assay: cAMP-agarose binding assay; details: data not shown
T2 construct: The GST-GRF4-cNMP-BD (residue 101-303); made in house
T2 sequence (Q9Y4G8 101-303): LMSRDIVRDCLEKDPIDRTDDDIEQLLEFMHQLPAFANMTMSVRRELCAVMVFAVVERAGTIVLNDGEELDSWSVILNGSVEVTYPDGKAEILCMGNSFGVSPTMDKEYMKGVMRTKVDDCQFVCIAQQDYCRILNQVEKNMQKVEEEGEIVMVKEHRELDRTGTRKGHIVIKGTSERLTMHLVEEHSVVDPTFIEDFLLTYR
Procedure: Right and left panels in (b) represent two separate experiments.
Following extensive washes in HNTG (20 mM Hepes, pH 7.5, 150 mM NaCl, 0.1% Triton ×100, 10% Glycerol) proteins were eluted off beads with sample buffer, separated on SDS-PAGE and immunoblotted with either anti GST antibodies for the in vitro binding experiments, or with anti GRF4 antibodies for the pull down experiments.

Compound: Nc1nc2c(nc(Br)n2[C@@H]2O[C@@H]3COP(O)(=S)O[C@H]3[C@H]2O)c(=O)[nH]1 (single isomer, unassigned) [RP8-Br-cGMPS, Guanosine 3′,5′-cyclic monophosphorothioate, 8-Bromo-, Rp-isomer]
Effect of PKG inhibitor on 8-Br-cGMP enhanced activation of Ras by GRF4 [1]: lack of effect

Compound: Nc1ncnc2c1nc(Br)n2C1OC2COP(O)(=S)OC2C1O (single isomer, unassigned) [Rp8-Br-cAMPS, Adenosine 3′,5′-cyclic monophosphorothioate, 8-Bromo-, Rp-isomer]
cAMP stimulation of GRF4-mediated activation of Ras in the presence of PKA inhibitor [1]: still able to stimulate

Compound: Nc1nc2c(nc(Br)n2[C@@H]2O[C@@H]3COP(=O)(O)O[C@H]3[C@H]2O)c(=O)[nH]1 [8-Br-cGMP]
Enhancement of activation of Ras by GRF4 by membrane permeable cNMP analogue ([1]; 15 min): greatly enhance
Activation of Ras and of MAPK in GRF4-expressing cells [3]: leads to activation

Compound: CNCCNS(=O)(=O)c1cccc2cnccc12 [H-8, N-[2-(methylamino)ethyl]-5-isoquinolinesulfonamide]
Effect of PKG inhibitor on 8-Br-cGMP enhanced activation of Ras by GRF4 [1]: lack of effect

Compound: Nc1nc2c(ncn2[C@@H]2O[C@@H]3COP(=O)(O)O[C@H]3[C@H]2O)c(=O)[nH]1 [cGMP, reference compound]
Competition of cAMP binding to the GRF4-cNMP-BD [4]: effectively competed

Further lines, with some results ahead:

GRF4 stimulation of Ras activation enhanced following treatment ([1]; 8-Br-cAMP 500 μM 15 min plus H-89 10 μM 30 min pre-treatment): 3.5 fold
GRF4 stimulation of Ras activation enhanced following treatment ([1]; 8-Br-cAMP 500 μM, 15 min): 3.9 fold
Enhancement of activation of Ras by GRF4 by membrane permeable cNMP analogue ([1]; 15 min): greatly enhanced
Activation of Ras and of MAPK in GRF4-expressing cells [3]: leads to activation
Compound: Nc1ncnc2c1nc(Br)n2[C@@H]1O[C@@H]2COP(=O)(O)O[C@H]2[C@H]1O [8-Br-cAMP]
Stimulation of GRF4-mediated activation of Rap1 [2]: not stimulated

cAMP stimulation of GRF4-mediated activation of Ras in the presence of PKA inhibitor [1]: still able to stimulate
Compound: O=S(=O)(NCCNCC=Cc1ccc(Br)cc1)c1cccc2cnccc12 [H-89, N-[2-((Pbromocinnamyi)amino)ethyl]-5-isoquinoiinesulfonamide]
